One assay has as its target T1, ULK1 kinase (Homo sapiens, UniProt O75385).
T1 construct: purchased Eurofins 14-959
T1 sequence (O75385 with tags, fused parts or gaps): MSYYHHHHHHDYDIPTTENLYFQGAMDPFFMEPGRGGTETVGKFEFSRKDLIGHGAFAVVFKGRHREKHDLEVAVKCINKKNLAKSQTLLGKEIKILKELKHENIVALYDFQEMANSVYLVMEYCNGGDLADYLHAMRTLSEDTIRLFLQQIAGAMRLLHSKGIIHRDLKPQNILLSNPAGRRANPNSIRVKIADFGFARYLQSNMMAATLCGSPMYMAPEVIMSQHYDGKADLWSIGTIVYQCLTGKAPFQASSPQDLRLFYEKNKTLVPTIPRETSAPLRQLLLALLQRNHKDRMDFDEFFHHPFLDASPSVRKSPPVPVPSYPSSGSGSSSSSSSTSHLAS
Description: Biochemical assay for ULK1.2 (coupled pyruvate kinase/lactate dehydrogenase assay). Particulars: 19 nM ULK1 (Eurofins), myelin basic protein, 1 mM ATP. The protocol: Example 174. Biochemical Assay for ULK1.2
(§1) Activity of ULK1 kinase was determined spectroscopically using a coupled pyruvate kinase/lactate dehydrogenase assay that continuously monitors the ATP hydrolysis-dependent oxidation of NADH (e.g., Schindler et al. Science (2000) 289: 1938-1942). Assays were conducted in 384-well plates (100 uL final volume) using 19 nM ULK1 (Eurofins CAT #14-959), 0.25 mg/mL myelin basic protein, 1.5 units pyruvate kinase, 2.1 units lactate dehydrogenase, 1 mM phosphoenol pyruvate, 0.28 mM NADH and 1 mM ATP in assay buffer (100 mM Tris, pH 7.5, 15 mM MgCl2, 0.5 mM DTT, 0.1% octyl-glucoside, 0.002% (w/v) BSA, and 0.002% Triton X-100). Inhibition of ULK1 was measured by adding serial diluted test compound (final assay concentration of 1% DMSO). A decrease in absorption at 340 nm was monitored continuously for 6 hours at 30° C. on a multi-mode microplate reader (BioTek). The reaction rate was calculated using the 2-3 h time frame. The reaction rate at each concentration of compound was converted to percent inhibition using controls (i.e. reaction with no test compound and reaction with a known inhibitor) and IC50 values were calculated by fitting a four-parameter sigmoidal curve to the data using Prism (GraphPad software).

The next assay has as its target T2, LRRK2 kinase (Homo sapiens, UniProt Q5S007).
T2 construct: purchased Thermo Fisher
Description: Biochemical assay for LRRK2 (coupled pyruvate kinase/lactate dehydrogenase assay). Particulars: 26.4 nM LRRK2 (residues 970-2528), 0.1 mM peptide substrate, 1 mM ATP. The protocol:
Example 182. Biochemical Assay for LRRK2 (SEQ. ID NO. 4)
Activity of LRRK2 kinase was determined spectroscopically using a coupled pyruvate kinase/lactate dehydrogenase assay that continuously monitors the ATP hydrolysis-dependent oxidation of NADH (e.g., Schindler et al. Science (2000) 289: 1938-1942). Assays were conducted in 384-well plates (100 uL final volume) using 26.4 nM LRRK2 (Thermo Fisher), 0.1 mM peptide substrate (RLGRDKYKTLRQIRQ (SEQ ID NO: 6)), 1.5 units pyruvate kinase, 2.1 units lactate dehydrogenase, 1 mM phosphoenol pyruvate, 0.28 mM NADH and 1 mM ATP in assay buffer (100 mM Tris, pH 7.5, 15 mM MgCl2, 0.5 mM DTT, 0.004% (w/v) BSA, and 0.004% Triton X-100). Inhibition of LRRK2 was measured by adding serial diluted test compound (final assay concentration of 1% DMSO). A decrease in absorption at 340 nm was monitored continuously for 6 hours at 30° C. on a multi-mode microplate reader (BioTek). The reaction rate was calculated using the 2-3 h time frame. The reaction rate at each concentration of compound was converted to percent inhibition using controls (i.e. reaction with no test compound and reaction with a known inhibitor) and IC50 values were calculated using software routines in Prism (GraphPad software).

Another assay addresses T3, ULK2 kinase (Homo sapiens, UniProt Q8IYT8).
T3 construct: purchased Eurofins 14-772
Description: Biochemical assay for ULK2 (coupled pyruvate kinase/lactate dehydrogenase assay). As to conditions: 9.7 nM ULK2 (Eurofins), myelin basic protein, 1 mM ATP; read-out: ULK2.2. Here is the method:
Example 176. Biochemical Assay for ULK2
as §1, with “of ULK2” for “of ULK1”, “using 9.7” for “using 19”, “nM ULK2” for “nM ULK1”, “CAT #14-772),” for “CAT #14-959),”

Structures are written as SMILES.

T2 sequence (Q5S007 with tags, fused parts or gaps): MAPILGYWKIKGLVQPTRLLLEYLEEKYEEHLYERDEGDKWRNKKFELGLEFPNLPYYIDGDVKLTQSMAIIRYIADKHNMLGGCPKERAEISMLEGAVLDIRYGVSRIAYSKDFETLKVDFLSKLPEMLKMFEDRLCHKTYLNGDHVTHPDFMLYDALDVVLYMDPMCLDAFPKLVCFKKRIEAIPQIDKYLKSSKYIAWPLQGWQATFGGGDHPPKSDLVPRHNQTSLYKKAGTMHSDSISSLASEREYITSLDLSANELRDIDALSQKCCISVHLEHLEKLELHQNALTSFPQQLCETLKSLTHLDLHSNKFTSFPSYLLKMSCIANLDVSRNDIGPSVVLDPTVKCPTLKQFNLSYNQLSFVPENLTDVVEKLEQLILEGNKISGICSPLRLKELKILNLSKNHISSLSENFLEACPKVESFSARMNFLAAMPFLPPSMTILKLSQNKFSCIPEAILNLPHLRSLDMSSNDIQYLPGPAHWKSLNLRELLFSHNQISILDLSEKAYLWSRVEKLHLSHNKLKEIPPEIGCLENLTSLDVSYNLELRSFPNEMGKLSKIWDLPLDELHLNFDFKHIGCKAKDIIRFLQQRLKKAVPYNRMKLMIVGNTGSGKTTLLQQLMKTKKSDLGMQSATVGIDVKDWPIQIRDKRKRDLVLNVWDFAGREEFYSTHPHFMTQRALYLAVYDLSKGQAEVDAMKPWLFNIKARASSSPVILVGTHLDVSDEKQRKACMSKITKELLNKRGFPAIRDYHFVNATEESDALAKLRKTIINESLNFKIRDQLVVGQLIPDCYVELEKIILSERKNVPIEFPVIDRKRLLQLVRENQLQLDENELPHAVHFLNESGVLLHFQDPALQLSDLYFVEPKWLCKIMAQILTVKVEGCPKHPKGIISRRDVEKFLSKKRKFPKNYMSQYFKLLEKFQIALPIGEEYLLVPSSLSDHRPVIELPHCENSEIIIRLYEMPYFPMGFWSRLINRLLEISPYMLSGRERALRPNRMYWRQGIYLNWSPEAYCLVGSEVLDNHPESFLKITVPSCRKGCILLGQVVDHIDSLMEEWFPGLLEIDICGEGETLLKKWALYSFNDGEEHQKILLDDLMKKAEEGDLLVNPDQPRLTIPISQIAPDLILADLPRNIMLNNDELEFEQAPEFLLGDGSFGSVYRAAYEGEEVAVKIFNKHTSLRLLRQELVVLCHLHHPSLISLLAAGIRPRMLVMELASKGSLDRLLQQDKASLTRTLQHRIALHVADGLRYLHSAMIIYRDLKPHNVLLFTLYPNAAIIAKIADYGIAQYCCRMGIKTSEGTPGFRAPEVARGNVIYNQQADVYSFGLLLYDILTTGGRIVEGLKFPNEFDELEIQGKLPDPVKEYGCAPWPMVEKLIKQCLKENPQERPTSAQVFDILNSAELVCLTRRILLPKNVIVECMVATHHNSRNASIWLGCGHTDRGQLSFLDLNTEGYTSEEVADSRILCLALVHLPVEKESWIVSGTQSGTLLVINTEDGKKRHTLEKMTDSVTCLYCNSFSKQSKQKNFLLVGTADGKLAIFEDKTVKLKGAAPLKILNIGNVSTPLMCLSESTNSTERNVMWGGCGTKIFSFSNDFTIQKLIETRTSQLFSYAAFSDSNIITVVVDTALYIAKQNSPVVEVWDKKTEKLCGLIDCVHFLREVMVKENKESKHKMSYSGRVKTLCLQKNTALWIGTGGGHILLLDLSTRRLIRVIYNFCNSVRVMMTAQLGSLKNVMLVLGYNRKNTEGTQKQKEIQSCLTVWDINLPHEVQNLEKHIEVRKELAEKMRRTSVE
T3 sequence (Q8IYT8 with tags, fused parts or gaps): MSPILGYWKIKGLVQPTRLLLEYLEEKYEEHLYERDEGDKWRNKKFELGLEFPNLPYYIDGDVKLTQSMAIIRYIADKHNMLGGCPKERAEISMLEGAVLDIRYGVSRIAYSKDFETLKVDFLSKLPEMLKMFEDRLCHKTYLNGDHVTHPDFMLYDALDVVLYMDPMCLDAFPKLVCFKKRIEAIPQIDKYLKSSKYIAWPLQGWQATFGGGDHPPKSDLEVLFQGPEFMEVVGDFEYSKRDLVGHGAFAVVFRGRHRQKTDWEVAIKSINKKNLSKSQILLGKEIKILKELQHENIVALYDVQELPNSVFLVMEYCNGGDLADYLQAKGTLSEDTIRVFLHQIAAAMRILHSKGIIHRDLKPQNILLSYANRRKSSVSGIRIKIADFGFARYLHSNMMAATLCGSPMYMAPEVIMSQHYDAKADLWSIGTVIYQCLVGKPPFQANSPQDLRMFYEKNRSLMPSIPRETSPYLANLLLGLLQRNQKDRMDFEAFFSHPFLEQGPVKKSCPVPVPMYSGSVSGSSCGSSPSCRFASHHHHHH

Take `Cc1nn(CCN2CCCC2)cc1Nc1ncc(C(F)(F)F)c(NCCCN2CCCCC2=O)n1` [Example 45]: the IC50 was 0.1 to 0.5 µM at ULK1 kinase and over 0.6 µM on LRRK2 kinase.

Take `C[C@@H](CCNc1nc(Nc2cnn(C3CCN(C)CC3)c2)ncc1Cl)N1CCCC1=O` [Example 157]: the IC50 against ULK1 kinase is over 0.5 µM; on LRRK2 kinase, over 0.6 µM.

`Cc1nn(CCCN2CCOCC2)cc1Nc1ncc(Cl)c(NCCCN2CCOCCC2=O)n1` [Example 135]: the IC50 against ULK1 kinase is over 0.5 µM; on LRRK2 kinase, over 0.6 µM.

For `CN1CCC(n2cc(Nc3ncc(C4CC4)c(NCCCN4CCCC4=O)n3)cn2)CC1` [Example 84], the IC50 against ULK1 kinase is 0.1 to 0.5 µM; on LRRK2 kinase, over 0.6 µM.

Turning to `Cc1nn(CCN2CCOCC2)cc1Nc1ncc(C(F)(F)F)c(NCCCN2CCCCCC2=O)n1` [Example 98], the IC50 on ULK1 kinase fell in the range of 0.1 to 0.5 µM; on LRRK2 kinase, 0.1 to 0.3 µM.

Turning to `Cc1nn(C2CCN(C)CC2)cc1Nc1ncc(C2CC2)c(NCCCN2CCCOCC2=O)n1` [Example 111], the IC50 on ULK1 kinase was over 0.5 µM; at LRRK2 kinase it was over 0.6 µM.

On to `CC(C)CN1CC(n2cc(Nc3ncc(Br)c(NCCCN4CCCC4=O)n3)cn2)C1` [Example 165], for which the IC50 against ULK1 kinase lay in the range of 0.1 to 0.5 µM; against LRRK2 kinase, 0.3 to 0.6 µM.

In the case of `Cc1nn(C2CCN(C3COC3)CC2)cc1Nc1ncc(C(F)(F)F)c(NCCCN2CCCCC2=O)n1` [Example 33], the IC50 at ULK1 kinase was 0.1 to 0.5 µM; against LRRK2 kinase, 0.3 to 0.6 µM.

With `CCc1nn(C2CCNCC2)cc1Nc1ncc(Cl)c(NCCCN2CCCCC2=O)n1` [Example 39], the IC50 is 0.1 to 0.5 µM at ULK1 kinase and over 0.6 µM against LRRK2 kinase.

For `CN1CCC(n2cc(Nc3ncc(Cl)c(NCCCN4CCCCC4=O)n3)cn2)CC1` [Example 2], the values for the IC50 on ULK1 kinase and at ULK2 kinase were 0.001 to 0.025 µM and 0.025 to 0.1 µM, respectively.

For `Cc1nn(CCN2CCCC2)cc1Nc1ncc(Br)c(NCCCN2CCCCC2=O)n1` [Example 62], the IC50 was 0.1 to 0.5 µM at ULK1 kinase and over 0.6 µM against LRRK2 kinase.

For the compound `CCc1nn(C2CCNCC2)cc1Nc1ncc(Br)c(NCCCN2CCCCC2=O)n1` [Example 41], the IC50 lay in the range of 0.025 to 0.1 µM against ULK1 kinase and 0.1 to 0.5 µM at ULK2 kinase.

In the case of `Cc1nn(C2CCN(C(C)C)CC2)cc1Nc1ncc(Cl)c(NCCCN2CCCOCC2=O)n1` [Example 110], the IC50 at ULK1 kinase is over 0.5 µM; on LRRK2 kinase, 0.1 to 0.3 µM.

As for `C[C@@H](CCNc1nc(Nc2cnn(C3CCN(C4CC4)CC3)c2)ncc1Cl)N1CCCC1=O` [Example 156], the values for the IC50 at ULK1 kinase and at LRRK2 kinase were over 0.5 µM and 0.3 to 0.6 µM, respectively.

On to `Cc1nn(C2CCN(C)CC2)cc1Nc1ncc(Cl)c(NCCCN2CCOCCC2=O)n1` [Example 132], for which the IC50 on ULK1 kinase was 0.1 to 0.5 µM; on LRRK2 kinase, over 0.6 µM.

Turning to `Cc1nn(C2CCN(C)CC2)cc1Nc1ncc(Cl)c(NCCCN2CCCCC2=O)n1` [Example 56], the IC50 at ULK1 kinase was 0.1 to 0.5 µM; against LRRK2 kinase, over 0.6 µM.

For `CC1CCC(=O)N1CCCNc1nc(Nc2cnn(C3CCN(C4CC4)CC3)c2)ncc1Cl` (stereo not shown) [Example 150], the IC50 lay in the range of 0.1 to 0.5 µM against ULK1 kinase and 0.1 to 0.3 µM against LRRK2 kinase.

Take `Cc1nn(C2CN(CC(C)C)C2)cc1Nc1ncc(Cl)c(NCCCN2CCCCC2=O)n1` [Example 38]: the IC50 is over 0.5 µM against ULK1 kinase and over 0.6 µM at LRRK2 kinase.

As for `Cc1nn(C2CN(CC(C)C)C2)cc1Nc1ncc(C(F)(F)F)c(NCCCN2CCCCC2=O)n1` [Example 23], the figures for the IC50 against ULK1 kinase and against LRRK2 kinase were 0.025 to 0.1 µM and over 0.6 µM, respectively.

For `CC1(C)CCC(=O)N1CCCNc1nc(Nc2cnn(C3CCN(C4CC4)CC3)c2)ncc1C1CC1` [Example 69], the figures for the IC50 against ULK1 kinase and against LRRK2 kinase were over 0.5 µM and over 0.6 µM, respectively.

As for `Cc1nn([C@@H]2CCNC2)cc1Nc1ncc(Br)c(NCCCN2CCCC2=O)n1` [Example 164], the results for the IC50 on ULK1 kinase and at LRRK2 kinase were 0.1 to 0.5 µM and 0.3 to 0.6 µM, respectively.

As to `CC(C)CN1CC(n2cc(Nc3ncc(Cl)c(NCCCN4CCCC4=O)n3)cn2)C1` [Example 159], the IC50 on ULK1 kinase was over 0.5 µM; against LRRK2 kinase, over 0.6 µM.

In the case of `CC1(C)CCN(CCCNc2nc(Nc3cnn(C4CCN(C5CC5)CC4)c3)ncc2Br)C1=O` [Example 153], the IC50 was 0.1 to 0.5 µM against ULK1 kinase and 0.3 to 0.6 µM on LRRK2 kinase.

Take `CC(C)CN1CC(n2cc(Nc3ncc(C(F)(F)F)c(NCCCN4CCCC4=O)n3)cn2)C1` [Example 170]: the IC50 on ULK1 kinase fell in the range of 0.1 to 0.5 µM; on LRRK2 kinase it was 0.3 to 0.6 µM.

On to `Cc1nn(CCN2CCOCC2)cc1Nc1ncc(C(F)(F)F)c(NCCCN2CCCCC2=O)n1` [Example 29], for which the IC50 is over 0.5 µM at ULK1 kinase and over 0.6 µM against LRRK2 kinase.

As for `CCN1CC[C@H](n2cc(Nc3ncc(C(F)(F)F)c(NCCCN4CCCC4=O)n3)c(C)n2)C1` [Example 168], the IC50 is 0.1 to 0.5 µM at ULK1 kinase and over 0.6 µM at LRRK2 kinase.
